Data reported in patent publication US20070117743A1, “New antitumoral compounds” (priority 2003, published 2007).

How the values were obtained:
Assay type in all cases: cell-based, human
[1] = system: PANC-1; test: SRB colorimetric assay of cell growth and viability, PANC-1; conditions: PANC-1, 48 hours exposure
[2] = system: SK-BR-3; test: SRB colorimetric assay of cell growth and viability, SK-BR-3; conditions: 48 hours exposure, SRB
[3] = system: LoVo; test: SRB colorimetric assay of cell growth and viability, LoVo; conditions: LOVO, 48 hours exposure
[4] = system: IGROV-ET; test: SRB colorimetric assay of cell growth and viability, IGROV-ET; conditions: 48 hours exposure, SRB
[5] = system: LoVo-Dox; test: SRB colorimetric assay of cell growth and viability, LoVo-Dox; conditions: LOVO-DOX, 48 hours exposure
How it was run: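 Tumor cells are continuously exposed to sample for 48 hours, with vehicle DMSO:EtOH:PBS (0.5:0.5:99), after an 18-hour drug-free attachment period. Bound SRB, measured at 490 nm, reflects cell mass; GI, TGI and LC are derived from triplicate means.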

[6] = system: A-549; test: SRB colorimetric assay of cell growth and viability, A-549; conditions: A-549, 48 hours exposure
[7] = system: HT-29; test: SRB colorimetric assay of cell growth and viability, HT-29; conditions: HT-29, 48 hours exposure
[8] = system: IGROV-1; test: SRB colorimetric assay of cell growth and viability, IGROV-1; conditions: 48 hours exposure, SRB
[9] = system: HeLa-APL; test: SRB colorimetric assay of cell growth and viability, HeLa-APL; conditions: HELA-APL, 48 hours exposure
[10] = system: HeLa; test: SRB colorimetric assay of cell growth and viability, HeLa; conditions: HELA, 48 hours exposure
[11] = system: LNCaP; test: SRB colorimetric assay of cell growth and viability, LNCaP; conditions: 48 hours exposure, SRB
[12] = system: DU-145; test: SRB colorimetric assay of cell growth and viability, DU-145; conditions: 48 hours exposure, SRB
[13] = system: K-562; test: SRB colorimetric assay of cell growth and viability, K-562; conditions: K-562, 48 hours exposure
[14] = system: SK-MEL-28; test: SRB colorimetric assay of cell growth and viability, SK-MEL-28; conditions: 48 hours exposure, SRB

For `C/C=C1\NC(=O)[C@H](Cc2ccccc2)NC(=O)[C@@H](C(C)C)NC(=O)[C@@H]([C@@H](C)CC)NC(=O)[C@H](NC(=O)[C@H](NC(=O)[C@H](CCCN)NC(=O)[C@H]2CCCN2C(=O)[C@H](NC(=O)[C@@H](NC(=O)[C@@H](NC(=O)[C@@H](C(C)C)N(CCCCCCC)CCCCCCC)[C@@H](C)O)C(C)C)C(C)C)[C@@H](C)CC)[C@@H](C)OC(=O)[C@H](C(C)C)NC1=O` [Compound 98, [no5-MeHex^14-N-(Hep)2-D-Val^13]-Kahalalide F], the “TGI PANC-1” value [1] was 6.40E−06 Molar, the “TGI SK-BR-3” value [2] was 6.40E−06 Molar and the “TGI LOVO” value [3] was 6.40E−06 Molar. For the same compound, the “TGI IGROV-ET” value [4] was 6.40E−06 Molar, the “TGI LOVO-DOX” value [5] was 6.40E−06 Molar and the “TGI A-549” value [6] was 6.40E−06 Molar. The “TGI HT-29” value [7] was 6.40E−06 Molar, the “TGI IGROV” value [8] was 6.40E−06 Molar and the “TGI HELA-APL” value [9] was 3.46E−06 Molar. The “TGI HELA” value [10] was 2.43E−06 Molar, the “TGI LN-caP” value [11] was 6.40E−06 Molar and the “TGI DU-145” value [12] was 6.40E−06 Molar. For the same compound, the “TGI K-562” value [13] was 6.40E−06 Molar and the “TGI MEL-28” value [14] was 6.40E−06 Molar.

With `C/C=C1\NC(=O)[C@H](Cc2ccccc2)NC(=O)[C@@H](C(C)C)NC(=O)[C@@H]([C@@H](C)CC)NC(=O)[C@H](NC(=O)[C@H](NC(=O)[C@H](CCCNC(=O)CCCC[C@@H]2SC[C@@H]3NC(=O)N[C@@H]32)NC(=O)[C@H]2CCCN2C(=O)[C@H](NC(=O)[C@@H](NC(=O)[C@@H](NC(=O)[C@H](NC(=O)CCCC(C)C)C(C)C)[C@@H](C)O)C(C)C)C(C)C)[C@@H](C)CC)[C@@H](C)OC(=O)[C@H](C(C)C)NC1=O` [Compound 99, [Orn(Biot)^8]-Kahalalide F] the GI50 [1] was 1500 nM, the “TGI PANC-1” value [1] was 3.50E−06 Molar and the CC50 ([1]; read-out: LC50 PANC-1) was 5870 nM. For the same compound, the GI50 [2] was 140 nM, the LC50 [2] was 575 nM and the “TGI SK-BR-3” value [2] was 2.84E−07 Molar. For the same compound, the GI50 [3] was 129 nM, the “TGI LOVO” value [3] was 2.53E−07 Molar and the CC50 ([3]; read-out: LC50 LOVO) was 495 nM. The GI50 [4] was 874 nM, the “TGI IGROV-ET” value [4] was 1.88E−06 Molar and the CC50 ([4]; read-out: LC50 IGROV-ET) was 4040 nM. The GI50 [5] was 139 nM, the “TGI LOVO-DOX” value [5] was 3.10E−07 Molar and the CC50 ([5]; read-out: LC50 LOVO-DOX) was 3930 nM. For the same compound, the “TGI A-549” value [6] was 2.05E−06 Molar, the GI50 ([6]; read-out: GI50 A-549) was 886 nM and the CC50 ([6]; read-out: LC50 A-549) was 4760 nM. For the same compound, the “TGI HT-29” value [7] was 2.41E−07 Molar, the GI50 ([7]; read-out: GI50 HT-29) was 124 nM and the CC50 ([7]; read-out: LC50 HT-29) was 467 nM. The GI50 [8] was 268 nM, the LC50 (concentration causing 50% net cell killing) [8] was 2690 nM and the “TGI IGROV” value [8] was 8.98E−07 Molar. The GI50 [9] was 951 nM, the “TGI HELA-APL” value [9] was 2.10E−06 Molar and the CC50 ([9]; read-out: LC50 HELA-APL) was 4650 nM. For the same compound, the GI50 [10] was 329 nM, the “TGI HELA” value [10] was 1.19E−06 Molar and the CC50 ([10]; read-out: LC50 HELA) was 3510 nM. For the same compound, the “TGI LN-caP” value [11] was 1.99E−06 Molar, the GI50 ([11]; read-out: GI50 LN-caP) was 1020 nM and the CC50 ([11]; read-out: LC50 LN-caP) was 3890 nM. The GI50 [12] was 757 nM, the LC50 (concentration causing 50% net cell kill) [12] was 3260 nM and the “TGI DU-145” value [12] was 1.57E−06 Molar. For the same compound, the GI50 [13] was 3300 nM, the “TGI K-562” value [13] was 5.87E−06 Molar and the CC50 ([13]; read-out: LC50 K-562) was 5870 nM. The GI50 [14] was 839 nM, the “TGI MEL-28” value [14] was 1.73E−06 Molar and the CC50 ([14]; read-out: LC50 MEL-28) was 3540 nM.
